{"source": "paper PMC3089604", "about": "(PLoS ONE, 2011)", "key": {"[1]": {"molecular_target": "T1, recombinant human DYRK1A (Homo sapiens, UniProt Q13627)", "T1 construct": "purchased Invitrogen", "assay": "In vitro kinase assay: DYRK1A catalyzed direct phosphorylation of recombinant tau on serine 396 (western)", "format": "biochemical", "conditions": "for IC50: recombinant DYRK1A + 4R2N tau, 1 mM ATP"}, "[2]": {"system": "tau phosphorylation in 4R0N tau overexpressing H4 neuroglioma cells", "assay": "Cell culture tau assay: western for total and phosphorylated tau after 96 h compound treatment", "format": "cell-based", "conditions": "for 12E8 % Control pTau/Total / pS396 % Control pTau/Total / pT231 % Control pTau/Total: normalized to total tau", "protocol": "4R0N tau overexpressing H4 neuroglioma cells were maintained in Dulbecco's Modified Eagle Medium (Invitrogen) supplemented with 10% fetal bovine serum (Invitrogen), 1% penicillin-streptomycin, geneticin (0.25 mg/ml), and 2 mM L-Glutamine (Invitrogen). Cells were maintained by splitting 1∶10 at 90% confluency. Prior to any experimentation, cells were 70–75% confluent to ensure cells were in their active growth phase. To test effects of DYRK1A knockdown on tau phosphorylation, cells were transfected with DYRK1A siRNA. Prior to treating cells with DYRK1A siRNA, siRNA was first complexed with siLentfect lipid transfection reagent (Bio-Rad) and reduced serum medium (Invitrogen) using a 6 well plate format. The final effective siRNA molarity used was 22.85 nM per well. Cells were grown for 96 hours at 37°C, 5% CO2. Cell lysates were prepared using the Complete Lysis-M, EDTA-free kit (Roche Applied Science) and total protein concentration was quantified using the BCA protein assay (Pierce). Westerns for the multiple forms of tau were performed as described below.\nFor all cell-based experiments, including siRNA treatments and compound treatments, cells were treated for 96 hours at 37°C, with 5% CO2. Cell lysates were then prepared using the Complete Lysis-M, EDTA-free kit (Roche Applied Science) supplemented with phosphatase inhibitor cocktails 1 and 2 (Sigma). Lysates were quantified using the BCA protein assay (Pierce). Protein from lysates (30 µg total protein per lane) was separated on SDS-PAGE gels and transferred to nitrocellulose membrane. Membranes were blocked in 5% blocking solution for one hour at room temperature (RT). Blocking buffer solution used for detection of non phosphorylated protein contained 5% Non-fat dry milk in 1×-TBS-T (50 mM Tris-HCl pH 7.4, 137 mM […], 2.7 mM KCl, 0.1% Tween). For detection of phosphorylated protein, blocking buffer solution contained 5% Bovine Serum Albumin in 1× TBS-T. Membranes were probed with primary antibody (various dilutions depending on the epitope – see below) in blocking buffer overnight at 4°C on a rocker. Membranes were subsequently washed with 1× TBS-T and probed with secondary antibody in blocking buffer for forty-five minutes using a 1∶25,000 dilution of HRP-GAM or HRP-GAR (Jackson Immunoresearch), depending on the species (mouse or rabbit) in which the primary antibodies were raised. Following incubation with secondary antibody, membranes were washed in 1× TBS-T and developed with Super Signal West Femto Maximum Sensitivity Substrate Kit ([…]) and digitally imaged. Protein band signal saturation was assessed before any further analysis of multiple forms of tau. Alpha Innotech Fluoro Chem SF imaging software verifies degrees of saturation when signal intensity is beyond the dynamic range (which is from 0–65,535). Protein band signal intensities used for quantification were within the instrument's dynamic range.\nTo test multiple primary antibodies, membranes were stripped for 15 minutes at RT using ReBlot Plus Mild Antibody Stripping Solution (Millipore). Membranes were then washed for 5 minutes in 1× TBS-T and blocked for one hour in 5% blocking solution at RT. For verification of protein loading, membranes were reprobed overnight at 4°C with an anti-Tubulin primary antibody (1∶1000 dilution; Cell Signaling). Primary antibodies used for detection included anti-tau (1∶2000 dilution; Dako), 12E8 tau (1∶7500 dilution; Peter Seubert, Elan Pharmaceuticals), pT231 tau (1∶1000 dilution; Abcam), pS396 tau (1∶5000 dilution; Abcam), and anti-DYRK1A (1∶500 dilution; Santa Cruz).\nCells undergoing any treatment, including β-carboline derivative dosing and siRNA treatment, were maintained in Dulbecco's Modified Eagle Medium (Invitrogen) supplemented with 10% fetal bovine serum (Invitrogen) and 2 mM L-Glutamine (Invitrogen). Viability assays were performed using a 96-well pate format. […]"}, "[3]": {"system": "MAO-A", "design": "method as in PMID 18980841", "conditions": "read-out: IC50 against MAO-A; cited from earlier work"}, "[4]": {"system": "DYRK1A", "design": "method as in PMID 17850214", "conditions": "synthetic peptide substrate; read-out: IC50 against DYRK1A; cited from earlier work"}, "[5]": {"assay": "alamar Blue viability (toxicity) assay", "format": "cell-based", "conditions": "human; H4 neuroglioma cells, drug renewed every 24 h for four days; read-out: IC50 for viability (concentration resulting in 50% cell viability)", "protocol": "Cells undergoing any treatment, including β-carboline derivative dosing and siRNA treatment, were maintained in Dulbecco's Modified Eagle Medium (Invitrogen) supplemented with 10% fetal bovine serum (Invitrogen) and 2 mM L-Glutamine (Invitrogen). Viability assays were performed using a 96-well pate format. Metabolic activity was measured 12 hours after the addition of 10% alamar Blue (Invitrogen) directly to attached cells in full medium. This assay was based on the ability of metabolically active cells to convert alamar Blue reagent into a fluorescent signal proportional to innate metabolic activity. Once the ideal IC50 value for viability was identified, effects on multiple forms of tau were investigated after treating with the β-carbolines indicated in Table S1 using the larger 6 well plate format. For both the viability assay and cell culture tau assays, cell culture media was removed and cells were treated with freshly made drug in new media every 24 hours for four days. For cell culture tau assays, protein lysates were prepared after 96 hours of treatment. All compounds were solubilized in dimethylsulfoxide (DMSO), diluted in growth medium to their respective 0.01 µM, 0.1 µM, 1 µM and 10 µM final working dilutions and added directly to cultured cells. The final DMSO percentage in culture for all compounds and concentrations tested was 0.1%. […]"}, "[6]": {"conditions": "30 min 30C, read-out: IC50 for inhibition of DYRK1A dependent tau phosphorylation at serine 396 (pS396)"}, "[7]": {"conditions": "read-out: IC50 for inhibition of DYRK1A dependent tau phosphorylation at serine 396"}}, "note": "Like-named read-outs stand apart in the source and are kept apart here."}
{"smiles": "c1ccc2c(c1)[nH]c1cnccc12", "note": "[Norharmane, norharmane]", "values": [{"measurement": "IC50", "setting": "[1]; [6]", "value": 45, "unit": "µM"}]}
{"smiles": "Cc1nccc2c1[nH]c1ccccc12", "note": "[Harmane, harmane]", "values": [{"measurement": "IC50", "setting": "[1]; [6]", "value": 15, "unit": "µM"}]}
{"smiles": "COc1ccc2c3c([nH]c2c1)C(C)=NCC3", "note": "[Harmaline, harmaline]", "values": [{"measurement": "IC50", "setting": "[1]; [6]", "value": 9, "unit": "µM"}]}
{"smiles": "CCn1c2cc(OC)ccc2c2ccnc(C)c21", "note": "[9-ethylharmine]", "values": [{"measurement": "Reduction of IC50 relative to harmine", "setting": "[1]; pS396 in vitro phosphorylation, ethyl group on N-9 vs harmine", "value": "~2", "unit": "fold"}, {"measurement": "IC50", "setting": "[1]; [7]", "value": 0.4, "unit": "µM"}, {"measurement": "Concentration at which tau levels were significantly reduced (p<0.05)", "setting": "[2]; H4-tau cells, 96 h", "value": 1, "unit": "µM"}]}
{"smiles": "Cc1[nH]ccc2c1[nH]c1cc(=O)ccc12", "note": "[Harmol, harmol]", "values": [{"measurement": "IC50", "setting": "[1]; [7]", "value": 0.09, "unit": "µM"}]}
{"smiles": "O=C(NCCN1CCOCC1)c1ccc(Cl)cc1", "note": "[Moclobemide]", "values": [{"measurement": "12E8 (pS262/pS356) tau % Control", "setting": "[2]; 500 µM (highest concentration), 96 h", "value": "116 ± 10", "unit": "% Control"}, {"measurement": "Total Tau % Control", "setting": "[2]; 500 µM, 96 h", "value": "103 ± 7", "unit": "% Control"}, {"measurement": "pS396 tau % Control", "setting": "[2]; 500 µM, 96 h", "value": "98 ± 9", "unit": "% Control"}, {"measurement": "pT231 tau % Control", "setting": "[2]; 500 µM, 96 h", "value": "118 ± 13", "unit": "% Control"}, {"measurement": "12E8 % Control pTau/Total", "setting": "[2]; 500 µM", "value": "112 ± 8", "unit": "% Control"}, {"measurement": "pS396 % Control pTau/Total", "setting": "[2]; 500 µM", "value": "95 ± 9", "unit": "% Control"}, {"measurement": "pT231 % Control pTau/Total", "setting": "[2]; 500 µM", "value": "114 ± 12", "unit": "% Control"}, {"measurement": "Effect on levels of total tau or specific phosphorylated forms of tau", "setting": "[2]; doses up to 500 µM", "value": "did not reduce"}, {"measurement": "IC50", "setting": "[3]", "value": 3.9, "unit": "µM"}]}
{"smiles": "COc1ccc2c(c1)[nH]c1c(C)nccc12", "note": "[Harmine]", "values": [{"measurement": "IC50", "setting": "[4]", "value": "[…]"}, {"measurement": "12E8 (pS262/pS356) tau % Control", "setting": "[2]; 8 µM, 96 h, H4-tau cells", "value": "32 ± 7", "unit": "% Control"}, {"measurement": "Total Tau % Control", "setting": "[2]; 8 µM, 96 h, H4-tau cells", "value": "55 ± 9", "unit": "% Control"}, {"measurement": "pS396 tau % Control", "setting": "[2]; 8 µM, 96 h, H4-tau cells", "value": "49 ± 8", "unit": "% Control"}, {"measurement": "pT231 tau % Control", "setting": "[2]; 8 µM, 96 h, H4-tau cells", "value": "24 ± 6", "unit": "% Control"}, {"measurement": "12E8 % Control pTau/Total", "setting": "[2]; 8 µM, 96 h", "value": "58 ± 6", "unit": "% Control"}, {"measurement": "pS396 % Control pTau/Total", "setting": "[2]; 8 µM, 96 h", "value": "89 ± 7", "unit": "% Control"}, {"measurement": "pT231 % Control pTau/Total", "setting": "[2]; 8 µM, 96 h", "value": "44 ± 5", "unit": "% Control"}, {"measurement": "12E8 % Control pTau/Total", "setting": "[2]; 8 µM, 96 h, listed as harmine", "value": 58, "unit": "% Control"}, {"measurement": "pT231 % Control pTau/Total", "setting": "[2]; 8 µM, 96 h, listed as harmine", "value": 44, "unit": "% Control"}, {"measurement": "Concentration at which tau levels were significantly reduced (p<0.05)", "setting": "[2]; H4-tau cells, 96 h", "value": "[…]"}, {"measurement": "IC50 at 4 days", "setting": "[5]", "value": 12, "unit": "µM"}]}
